We go through four compounds from US6288059A, “Acylated hetero-alicyclic derivatives” (Sankyo Company, Limited, priority 1997, dated 2001).

The structures appear in SMILES notation.

Experiment [1] addresses T1, NK2 receptor (Cavia porcellus, UniProt Q64077).
T1 construct: A crude membrane fraction was prepared from the ileum of male Hartley guinea pigs; from tissue; host or cells: ileum of male Hartley guinea pigs, crude membrane fraction
T1 sequence (Q64077 1-402): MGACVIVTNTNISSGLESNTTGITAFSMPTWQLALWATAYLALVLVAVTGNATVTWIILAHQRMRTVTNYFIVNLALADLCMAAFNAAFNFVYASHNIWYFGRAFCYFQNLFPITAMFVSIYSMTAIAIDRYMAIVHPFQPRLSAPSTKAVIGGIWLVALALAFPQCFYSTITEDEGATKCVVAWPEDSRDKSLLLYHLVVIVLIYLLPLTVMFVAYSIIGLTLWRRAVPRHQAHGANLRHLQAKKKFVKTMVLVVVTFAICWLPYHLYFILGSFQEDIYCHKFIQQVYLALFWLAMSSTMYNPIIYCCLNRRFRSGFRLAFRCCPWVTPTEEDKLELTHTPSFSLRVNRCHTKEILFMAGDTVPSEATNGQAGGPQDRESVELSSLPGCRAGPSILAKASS
The experiment in a line: NK2 Receptor Binding Test ([3H]-SR-48968, crude ileum membrane fraction). The following applies: [3H]-SR-48968 1 nM; guinea pig ileum membrane; room temperature, 30 minutes; read-out: IC50 (50% binding drug concentration) (converted). On the set-up: species or system guinea pig (male Hartley). Here is the method: Test Example 2 NK2 Receptor Binding Test
(a) Preparation of crude ileum membrane fraction
A crude membrane fraction was prepared from the ileum of male Hartley guinea pigs. Namely, the guinea pigs were bled from the cava abdominalis under chloroform anaesthesia and the ileum was extracted immediately.
After the contents secreta and epithelium of the ilium had been scraped off using a glass slide, the extracted ileum was thinly cut in a buffer (1) (50 mM Tris-HCl, pH 7.4) and then homogenized in a buffer (2) [buffer (1) containing 120 mM sodium chloride and 5 mM potassium chloride] using a Polytron homogenizer.
The tissue mass was removed from the homogenate by filtration with a nylon mesh (50 μm) and the supernatant was centrifuged (30,000×g, 30 minutes, 4° C.).
The resultant pellet was resuspended in an ice-cooled buffer (3) [buffer (1) containing 10 mM EDTA and 300 mM potassium chloride], allowed to stand at 4° C. for 60 minutes and then washed centrifugally twice (30,000×g, 15 minutes, 4° C.).
The crude membrane fraction was preserved at -80° C. before use.
(b) Receptor Binding Test
To a mixed solution (250 μl) of the test compound and [^3 H]-SR.-48968 (Amasham Co., final concentration: 1 nM) (50 mM Tris-HCl, pH 7.4; 6 mM manganese chloride, 800 μg/ml BSA, 8 μg/ml chymostatin, 8 μg/ml leupeptin, 80 μg/ml bacitracin, 20 μg/ml phosphoramidon) was added the crude ileum membrane fraction solution (250 μl), followed by incubation at room temperature for 30 minutes.
After the reaction, a membrane ingredient was recovered on a GF/B glass fiber filter (Whatman Co.) using an automatic filtering device (Brandel Co.).
The glass filter was used after pretreatment with a 10% of polyethyleneimine solution for about 4 hours so as to inhibit non-specificbinding as much as possible.
The membrane ingredient-recovered filter was transferred to a mini-plastic vial containing a pico flow (4 ml) and the radioactivity was measured using a liquid scintillation counter (Beckman Co., LSC3500) to determine the 50% binding drug concentration (IC50).

Experiment [2] relates to NK2 receptors. The following applies: relative to SR48968; Tachykinin in Health and Disease abstract, 1997; cited from earlier work.

Regarding `O=C(C1CCC1)N1CCOC(CCN2CCC3(CC2)c2ccccc2C[S+]3[O-])(c2ccc(Cl)c(Cl)c2)C1` [Example 1, 1-{2-[(2R)-(3,4-dichlorophenyl)-4-(cyclobutanecarbonyl)morpholin-2-yl]ethyl}spiro[benzo[c]thiophene-1(3H),4'-piperidine]-(2S)-oxide], the IC50 in experiment [1] was 1.67 nM.
As for `O=C(C1CC1)N1CCOC(CCN2CCC3(CC2)c2ccccc2C[S+]3[O-])(c2ccc(Cl)c(Cl)c2)C1` [Example 2, 1-{2-[(2R)-(3,4-dichlorophenyl)-4-(cyclopropanecarbonyl)morpholin-2-yl]ethyl}spiro[benzo[c]thiophene-1(3H),4'-piperidine]-(2S)-oxide], in experiment [1], the IC50 is 1.39 nM.
Take `O=C(C1CCCC1)N1CCOC(CCN2CCC3(CC2)c2ccccc2C[S+]3[O-])(c2ccc(Cl)c(Cl)c2)C1` [Example 3, 1-{2-[(2R)-(3,4-dichlorophenyl)-4-(cyclopentanecarbonyl)morpholin-2-yl]ethyl}spiro[benzo[c]thiophene-1(3H),4'-piperidine]-(2S)-oxide]: the IC50 in experiment [1] was 1.58 nM.
Take `CN(C)C(=O)NC1(c2ccccc2)CCN(CC[C@@]2(c3ccc(F)c(F)c3)CN(C(=O)c3ccccc3)CCO2)CC1` [SR144190]: the “NK2 receptor-selective antagonistic activity compared with SR.48968” value in experiment [2] is recorded as “more potent than that of SR.48968”.
